Patent US6613541B1, “Method for monitoring proteasome inhibitor drug action” (Millennium Pharmaceuticals, Inc., priority 1998, dated 2003)
Entries after “also recorded” stand apart in the source; their conditions may differ. Where two headings read alike, the source gives them in different places.

What was measured:
[1] = test system: 20S proteasome; assay: Ex vivo 20S proteasome activity in primate white blood cells, twice weekly intravenous dosing for 4 weeks; design: species or system Cynomolgus monkeys
Procedure: Male and female Cynomolgus monkeys (2.2 to 3.5 kg) were assigned to four groups (5/sex/group). Each group received 0 (vehicle control), 0.045, 0.067 or 0.100 mg/kg/dose of 1 as a single intravenous injection in a dose volume of 0.3 mL/kg twice weekly for 4 weeks (days 1, 5, 8, 12, 15, 19, 22 and 26). […] Three males from the control, low- and mid-dose groups, two high-dose males, and three females/group were sacrificed at the end of treatment on Day 27. Two animals/sex/group were designated as recovery animals and received treatment for 4 weeks followed by 2 weeks of recovery; they were sacrificed on Day 41.
Blood was collected for 20S proteasome activity determination prior to treatment, at 1.0 h after dosing on Days 1, 8, 15 and 22, and at 1.0 h prior to dosing on Days 5, 12, 19 and 26; and on Days 31, 34, 38, and 41 (recovery sacrifice animals).

[2] = test system: 20S proteasome; assay: Ex vivo 20S proteasome activity in peripheral white blood cells of rats after single intravenous administration; design: species or system female Wistar rats
Procedure: (§1) The amount of 20S proteasome activity in the test sample is calculated according to the following formula: [formula]
(§2) Dose formulations of 1 were prepared daily during the course of the study. Dilutions were prepared from a stock solution. The stock solution of 1 was made up in 98% saline (0.9%), 2% ethanol with 0.1% ascorbic acid. Dilutions of the stock were made in the same vehicle.
(§3) Drugs were administered in vehicle intravenously (IV) using a dose volume of 100 μL per mouse or 1.0 mL/kg in rats. Control groups were administered with the vehicle (98% saline [0.9%], 2% ethanol, 0.1% ascorbic acid). Animals were dosed with 1 as a single IV bolus given either once or on multiple occasions.
(§4) Following IV dosing with 1, blood was withdrawn at various time points and peripheral white blood cells were isolated.
Blood samples were collected at 1.0, 24 and 48 h following administration of 1.

[3] = biological target: T1, 20S proteasome (Rattus norvegicus, UniProt P28075); assay: Ex vivo 20S proteasome activity in rat blood and tissues 1.0 h after intravenous administration (third study); design: from tissue; host or cells: rat liver and brain (Wistar); blood, brain, colon, liver, muscle, prostate, testes (Sprague-Dawley); species or system male Sprague-Dawley rats
T1 sequence (P28075 60-263): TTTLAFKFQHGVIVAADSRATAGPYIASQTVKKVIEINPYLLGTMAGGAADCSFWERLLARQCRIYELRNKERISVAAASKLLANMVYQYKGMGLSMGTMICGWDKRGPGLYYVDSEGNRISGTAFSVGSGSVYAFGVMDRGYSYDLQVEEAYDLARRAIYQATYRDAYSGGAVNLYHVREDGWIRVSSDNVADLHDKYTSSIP
Procedure: Blood and tissue samples were collected 1.0 h following administration for evaluation of 20S proteasome activity. The tissues collected were brain, colon, liver, muscle (gastrocnemius), prostate and testes.

[4] = test system: 20S proteasome in rat white blood cell lysates; assay: Ratio of chymotryptic to tryptic activity in rat white blood cell lysates; type: biochemical; settings: fit of vc/vt
From the text: Data was fitted as in Example 10, to give kc/kt=17.6± and βt=1.1±0.2 (FIG. 13).

[5] = design: species or system Sprague-Dawley rats; settings: rat, in vivo, iv
Procedure: A single dose intravenous pharmacokinetics study with N-(pyrazine) carbonyl-L-phenylalanine-L-leucine boronic acid (1) was conducted in Sprague-Dawley rats (140 to 280 g). Animals were assigned to 3 groups (6/sex in Groups 1 and 2; 9/sex in Group 3). Animals in groups 1, 2, and 3 received 0.03, 0.1 or 0.3 mg/kg of 1, respectively, in the same dose volume.
Blood samples (approximately 1.0 mL) were collected from the jugular vein of animals pre-dose and at approximately 10 and 30 min and 1, 3 and 24 h post-dose on Day 1.

[6] = test system: purified 20S proteasome from rabbit reticulocytes (chymotryptic activity); assay: Chymotryptic activity of purified 20S proteasome (Ys substrate, fluorometry)
Procedure: The assay is based upon the SDS-inducible chymotrypsin-like activity of free 20S particles. It uses fluorometry to measure the rate at which the 20S proteasome hydrolyzes an amide bond in a small peptide substrate. Measurement of this rate in the absence and in the presence of an inhibitor allows a determination of how enzyme is bound by inhibitor.
The Ys substrate is dissolved to 6 mM in DMSO. A 2% (2 g/100 mL) solution of SDS in MilliQ water is prepared in a glass bottle. The Ys substrate buffer, containing 20 mM HEPES, 0.5 mM EDTA, 0.035% SDS, 1% DMSO, and 60 μM Ys substrate, is prepared. The final pH of the Ys buffer is 8.0.
10 μL of a test sample is added to a cuvette containing 2 mL of Ys substrate buffer at 37° C., and the reaction is allowed to run for 10 minutes. Complete activation of the 20S proteasome is achieved within 10 minutes. Consistent results are obtained for readings taken after 4 minutes and up to 10 minutes. The maximum linear slope for at least 1 minute of data is measured. If the rate is less than 1 pmol AMC/sec, the measurement is repeated using 20 μL of the test sample.
(§5) Chymotryptic and tryptic assays were performed as described in Examples 3 and 5 at increasing concentrations of the proteasome inhibitor 1.

[7] = test system: 20S proteasome; assay: Ratio of chymotryptic to tryptic activity, titration of inhibitor in human samples; type: biochemical
Procedure: The percent inhibition (%I) is then calculated according to the following equation: [formula]
μt=activation factor determined upon titration of the proteasome inhibitor. For the proteasome inhibitor 1, βt=1.28 in human samples.
Complete activation of the 20S roteasome is achieved within 10 minutes.
βt=activation factor determined upon titration of the proteasome inhibitor. For the proteasome inhibitor 1, βt=1.28 in human samples.

[8] = test system: 20S proteasome; assay: Ex vivo 20S proteasome activity in peripheral white blood cells of rats after repeat intravenous administration
Procedure: as §1, §3
In an additional repeat dose study, male Sprague-Dawley rats (250 to 450 g; n=6 per group) were treated with twice weekly intravenous doses of 1 (0.01 to 0.35 mg/kg/day in a dose volume of 1.0 mL/kg) for two weeks. […] Blood samples were collected 1.0 h after the last dose for evaluation of 20S proteasome activity.

[9] = test system: purified 20S proteasome from rabbit reticulocytes (tryptic activity); assay: Tryptic activity of purified 20S proteasome (Rs substrate, fluorometry)
Procedure: The assay is based upon the SDS-inducible chymotrypsin-like and trypsin-like activities of free 20S proteasome particles. It uses fluorometry to measure the rate at which the 20S proteasome hydrolyzes an amide bond in a small peptide substrate.
The Rs substrate is dissolved to 10 mM in DMSO. The Rs substrate buffer, containing 20 mM HEPES, 0.5 mM EDTA, 0.6% DMSO, and 60 μM Rs substrate, is prepared.
20 μL of a test sample is added to a cuvette containing 2 mL of Rs substrate buffer at 37° C., and the reaction is allowed to run for 10 minutes. Complete activation of the 20S proteasome is achieved within 10 minutes. Consistent results are obtained for readings taken after 4 minutes and up to 10 minutes. The maximum linear slope for at least 1 minute of data is measured. If the rate is less than 1 pmol AMC/sec, the measurement is repeated using 20 μL of the test sample in 800 μL Rs buffer.
as §5
Chymotryptic and tryptic assays were performed as described in Examples 3 and 5 at increasing concentrations of the proteasome inhibitor 1. The data was fitted to vc/vt=kc/kt*(1−f)/(1−f+βt*f), where kc/kt=2.88±0.03, βt=1.38±0.05, and %I=f*100 (FIG. 12).

[10] = test system: 20S proteasome; assay: Ex vivo 20S proteasome activity in peripheral white blood cells of mice after single intravenous administration; design: species or system female CD2-F1 mice and female BALB/c mice
Procedure: as §1, §2, §3, §4
The vehicle was […] [0.9%], 2% ethanol, 0.1% ascorbic acid. Blood samples were collected at 1.0 and 24 h following administration. Due to the blood volume required in the 20S proteasome activity assay, groups of five mice were sacrificed at the same time and their blood pooled to generate single data points.

[11] = biological target: T1, 20S proteasome
Procedure: In two studies, female Wistar rats (150 to 200 g) were administered a single intravenous dose of 1 (0.03, 0.1 and 0.3 mg/kg in a dose volume of 1.0 mL/kg). […] Tissue samples were collected from liver and brain at 1.0, 24 and 48 h following administration for evaluation of 20S proteasome activity.

[12] = 1.0 h after single IV 0.1 and 0.3 mg/kg
[13] = inferred from absence of 20S proteasome inhibition
[14] = alternate daily IV for 14 days, 24 h after last dose
[15] = daily IV for 7 days, 24 h after last dose
[16] = once weekly IV for 8 weeks, 24 h after last dose

## CC(C)C[C@H](NC(=O)[C@H](Cc1ccccc1)NC(=O)c1cnccn1)B(O)O [compound 1, N-(pyrazine)carbonyl-L-phenylalanine-L-leucine boronic acid]
[1]; 0.100 mg/kg/dose IV twice weekly, Day 26 after receiving 8 doses
  clinical condition of high-dose male: sacrificed in moribund condition
[1]; 1.0 h after dosing, 0.045, 0.067 or 0.100 mg/kg/dose IV twice weekly
  white blood cell 20S proteasome activity: significant and dose-related decrease
[1]; 72 hours after dosing, prior to the subsequent dose
  white blood cell 20S proteasome activity: recovered
[1]; high-dose male at sacrifice on Day 26 after 8 doses
  20S proteasome activity in white blood cells of the moribund animal: low residual 20S proteasome activity
[2]; 1.0 h after single IV 0.03 to 0.3 mg/kg
  20S proteasome activity in white blood cells: significant (p<0.05) dose-related decrease
[2]; 24 h after single IV 0.03 to 0.3 mg/kg
  20S proteasome activity in white blood cells: smaller, but remained significant (p<0.05) in the higher dose groups
[2]; 48 h after single IV 0.03 to 0.3 mg/kg
  20S proteasome activity in white blood cells: no longer significantly decreased
[2]; single intravenous injection, rats
  inhibition of 20S proteasome activity in peripheral white blood cells (overall): dose-dependent and reversible inhibition
[3]; [12]
  20S proteasome activity in peripheral white blood cells, colon, liver, muscle (gastrocnemius), and prostate: Significant (p<0.05) dose-related decreases
  20S proteasome inhibition in brain and testes: No 20S proteasome inhibition was observed
[3]; [13]
  penetration of 1 into brain and testes: lack of 1 penetration
[4]
  βt (activation factor of tryptic activity): 1.1±0.2
[5]
  clearance from the blood: rapidly cleared from the blood
[5]; 0.3 mg/kg
  time to peak concentration (Tmax): ≤ 10 min
[6]
  βc (factor for chymotryptic site activity of E I complex; 0 = total inhibition): 0
[6]; increasing concentrations of 1
  effect on chymotryptic activity: fully inhibits; also recorded: fully inhibitable
[7]
  βt (activation factor determined upon titration of the proteasome inhibitor): 1.28
[8]; 24 h after 7 daily IV doses
  extent of 20S proteasome inhibition compared with single dose: greater than that observed 24 h after administration of a single intravenous dose
[8]; [14]
  20S proteasome activity in white blood cells: significant dose-related decrease
  dose groups with significant (p<0.05) decrease in 20S proteasome activity: ≥ 0.2 mg/kg
[8]; [15]
  20S proteasome activity in white blood cells: dose-related decrease
  doses with significant inhibition of 20S proteasome activity: ≥ 0.05 mg/kg
[8]; [16]
  20S proteasome activity in white blood cells: significant (p<0.05) dose-related decrease
  dose groups with significant (p<0.05) decrease in 20S proteasome activity: ≥ 0.1 mg/kg
[8]; twice weekly IV for 2 weeks (4 doses, 0.01 to 0.35 mg/kg/day), male Sprague-Dawley rats, 1.0 h after last dose
  20S proteasome activity in white blood cells: dose-related decrease
[8]; twice weekly IV for 2 weeks, male Sprague-Dawley rats, 1.0 h after last dose
  dose groups with significant (p<0.05) decrease in 20S proteasome activity: ≥ 0.03 mg/kg
[9]; fit of vc/vt, purified 20S proteasome from rabbit reticulocytes
  βt (activation factor of tryptic activity): 1.38±0.05
[9]; increasing concentrations of 1, same concentration range
  effect on tryptic activity: activation; also recorded: activated
[10]; 1.0 h after single IV 0.1 to 3.0 mg/kg, all dose groups
  20S proteasome activity in white blood cells: significant (p<0.05) dose-related decrease
[10]; 24 h after single IV 0.1 to 3.0 mg/kg
  20S proteasome activity in white blood cells: starts to recover
[10]; single intravenous injection, mice
  inhibition of 20S proteasome activity in peripheral white blood cells (overall): dose-dependent and reversible inhibition
[11]; 1.0 h after single IV 0.03, 0.1 and 0.3 mg/kg
  20S proteasome activity in rat liver: significant (p<0.05) dose-related decrease
[11]; 24 h after single IV, high dose group 0.3 mg/kg
  20S proteasome activity in rat liver: smaller, but remained significant (p<0.05) in the high dose group
[11]; 48 h after single IV
  20S proteasome activity in rat liver: returned to baseline
[11]; [13]
  penetration of 1 into brain tissue: lack of penetration
[11]; single IV 0.03, 0.1 and 0.3 mg/kg, 1.0, 24 and 48 h
  20S proteasome inhibition in brain tissue: No 20S proteasome inhibition was observed
